# In patent publication US5939098A, “Cancer treatment with temozolomide” (Schering Corporation, priority 1997, dated 1999):
# What was measured:
# [1] = side effects of temozolomide administration; type: in vivo, patient; settings: can be alleviated by an anti-emetic
# Procedure: It is preferred that the anti-emetic Ondansetron be given p.o. in a dose of about 8 mg about 30 minutes before temozolomide administration. Of course other anti-emetics such as Hasaldol, Benadryl, and Ativan may also be used as needed.
# advanced melanoma [2] = settings: patients with advanced melanoma; Journal of Clinical Oncology, Vol 13, No. 4, 1995, pp 910-913; cited from earlier work
# advanced melanoma [3] = settings: patients having advanced melanoma; Newlands ES, et al. Br J Cancer 65 (2), 1992; cited from earlier work
# [4] = parameters: species or system patient; settings: human, in vivo
# Procedure: Prior to this invention it was generally believed that administering temozolomide to a patient having food in their stomach or to a patient who consumed food too soon before or after administering of the temozolomide would interfere with the bioiavailability of the temozolomide. A fasting of about 8 hours, before administering of temozolomide and 4 hours after receiving temozolomide was believed necessary. Since two twelve-hour fasting periods per day would obviously be unacceptable, it was believed that temozolomide could be administered a maximum of once per day. […] Therefore long fasting periods before and after administration of temozolomide are not necessary. Dosing with temozolomide more than once per day may improve the effectiveness of the treatment. This is so because increasing the frequency of dosing may deplete the O^6 -aklylguanine DNA alkyltransferase more effectively and maintain the depletion of this repair enzyme, resulting therefore in better effectiveness of the drug.
compound,measurement,setting,value
"Cn1nnc2c(C(N)=O)ncn2c1=O [temozolomide, 3,4-dihydro-3-methyl-4-oxoimidazo-[5,1-d]1,2,3,4-tetrazin-8-carboximide]","common, but tolerable side effect",[1],nausea and vomiting
same,"clinical response achieved, % of patients",advanced melanoma [2],21%
same,"clinical responses achieved, % of patients",advanced melanoma [3],17%
same,Area Under Curve (AUC) for those fed as % of AUC for those fasted,[4],about 90%
